# Tested on: panel of nearly 500 cancer cell lines
# Experiment: Cancer Cell Line Encyclopedia profiling, 3-day CellTiter-Glo
# Format: cell-based
# Design: Amax: unit not given here
compound,measurement,setting,value
"CN(C)C(=O)c1cc2cnc(Nc3ccc(N4CCNCC4)cn3)nc2n1C1CCCC1 [Ribociclib, 7-cyclopentyl-2-(5-piperazin-1-yl-pyridin-2-ylamino)-7H-pyrrolo[2,3-d]pyrimidine-6-carboxylic acid dimethylamide]",Amax,8mgba (central_nervous_system),0.325
same,Amax,769p (kidney),-56.5199
same,Amax,786o (kidney),2.199
same,Amax,8305c (thyroid),-43.2823
same,Amax,8505c (thyroid),-10.3812
same,EC50,CMK-86,0.195 µM
same,IC50,CMK-86,0.513 µM
same,EC50,COLO 699,0.00254 µM
same,IC50,COLO 699,> 8 µM
same,EC50,COV318,> 8 µM
same,IC50,COV318,> 8 µM
same,EC50,COV504,> 8 µM
same,IC50,COV504,> 8 µM
same,EC50,Fu97,0.483 µM
same,IC50,Fu97,> 8 µM
same,EC50,GLC82,> 8 µM
same,IC50,GLC82,> 8 µM
same,EC50,HCC15,> 8 µM
same,IC50,HCC15,> 8 µM
same,EC50,HEC-6,> 8 µM
same,IC50,HEC-6,> 8 µM
same,EC50,HEC-251,> 8 µM
same,IC50,HEC-251,> 8 µM
same,EC50,HEY A8,2.2 µM
same,IC50,HEY A8,> 8 µM
same,EC50,"Homo sapiens, 8-MG-BA",> 8 µM
same,IC50,"Homo sapiens, 8-MG-BA",> 8 µM
same,EC50,"Homo sapiens, 22Rv1",0.99 µM
same,IC50,"Homo sapiens, 22Rv1",3.81 µM
same,EC50,"Homo sapiens, 639-V",> 8 µM
same,IC50,"Homo sapiens, 639-V",> 8 µM
same,EC50,"Homo sapiens, 769-P",1.14 µM
same,IC50,"Homo sapiens, 769-P",4.43 µM
same,EC50,"Homo sapiens, 786-0",> 8 µM
same,IC50,"Homo sapiens, 786-0",> 8 µM
same,EC50,"Homo sapiens, 8305C",> 8 µM
same,IC50,"Homo sapiens, 8305C",> 8 µM
same,EC50,"Homo sapiens, 8505C",1.87 µM
same,IC50,"Homo sapiens, 8505C",> 8 µM
same,EC50,"Homo sapiens, A 172",> 8 µM
same,IC50,"Homo sapiens, A 172",> 8 µM
same,EC50,"Homo sapiens, A204",0.0389 µM
same,IC50,"Homo sapiens, A204",> 8 µM
same,EC50,"Homo sapiens, A253",> 8 µM
same,IC50,"Homo sapiens, A253",> 8 µM
same,EC50,"Homo sapiens, A549",0.801 µM
same,IC50,"Homo sapiens, A549",> 8 µM
same,EC50,"Homo sapiens, A673",0.568 µM
same,IC50,"Homo sapiens, A673",> 8 µM
same,EC50,"Homo sapiens, A2058",> 8 µM
same,IC50,"Homo sapiens, A2058",> 8 µM
same,EC50,"Homo sapiens, A2780",0.201 µM
same,IC50,"Homo sapiens, A2780",4.04 µM
same,EC50,"Homo sapiens, A-375",> 8 µM
same,IC50,"Homo sapiens, A-375",8 µM
same,EC50,"Homo sapiens, ACHN",> 8 µM
same,IC50,"Homo sapiens, ACHN",> 8 µM
same,EC50,"Homo sapiens, AMO1",> 8 µM
same,IC50,"Homo sapiens, AMO1",> 8 µM
same,EC50,"Homo sapiens, AN3-CA",> 8 µM
same,IC50,"Homo sapiens, AN3-CA",> 8 µM
same,EC50,"Homo sapiens, ASPC1",> 8 µM
same,IC50,"Homo sapiens, ASPC1",> 8 µM
same,EC50,"Homo sapiens, AU565",> 8 µM
same,IC50,"Homo sapiens, AU565",> 8 µM
same,EC50,"Homo sapiens, AZ-521",> 8 µM
same,IC50,"Homo sapiens, AZ-521",> 8 µM
same,EC50,"Homo sapiens, BCPAP",> 8 µM
same,IC50,"Homo sapiens, BCPAP",> 8 µM
same,EC50,"Homo sapiens, BFTC-909",3.38 µM
same,IC50,"Homo sapiens, BFTC-909",> 8 µM
same,EC50,"Homo sapiens, BGC-823",> 8 µM
same,IC50,"Homo sapiens, BGC-823",> 8 µM
same,EC50,"Homo sapiens, BL-41",> 8 µM
same,IC50,"Homo sapiens, BL-41",> 8 µM
same,EC50,"Homo sapiens, BT-474",> 8 µM
same,IC50,"Homo sapiens, BT-474",> 8 µM
same,EC50,"Homo sapiens, BT-549",> 8 µM
same,IC50,"Homo sapiens, BT-549",> 8 µM
same,EC50,"Homo sapiens, BXPC-3",> 8 µM
same,IC50,"Homo sapiens, BXPC-3",> 8 µM
same,EC50,"Homo sapiens, C2BBe1",> 8 µM
same,IC50,"Homo sapiens, C2BBe1",> 8 µM
same,EC50,"Homo sapiens, CAKI-2",> 8 µM
same,IC50,"Homo sapiens, CAKI-2",> 8 µM
same,EC50,"Homo sapiens, CAL-12T",4.08 µM
same,IC50,"Homo sapiens, CAL-12T",4.08 µM
same,EC50,"Homo sapiens, CAL-27",3.83 µM
same,IC50,"Homo sapiens, CAL-27",> 8 µM
same,EC50,"Homo sapiens, CAL-85-1",> 8 µM
same,IC50,"Homo sapiens, CAL-85-1",> 8 µM
same,EC50,"Homo sapiens, CAMA-1",> 8 µM
same,IC50,"Homo sapiens, CAMA-1",> 8 µM
same,EC50,"Homo sapiens, CHL-1",> 8 µM
same,IC50,"Homo sapiens, CHL-1",> 8 µM
same,EC50,"Homo sapiens, CHP-212",0.126 µM
same,IC50,"Homo sapiens, CHP-212",1.84 µM
same,EC50,"Homo sapiens, COLO 201",> 8 µM
same,IC50,"Homo sapiens, COLO 201",> 8 µM
same,EC50,"Homo sapiens, COLO 205",1.24 µM
same,IC50,"Homo sapiens, COLO 205",3.46 µM
same,EC50,"Homo sapiens, COLO 320",> 8 µM
same,IC50,"Homo sapiens, COLO 320",> 8 µM
same,EC50,"Homo sapiens, COLO-678",0.475 µM
same,IC50,"Homo sapiens, COLO-678",> 8 µM
same,EC50,"Homo sapiens, COLO-679",1.03 µM
same,IC50,"Homo sapiens, COLO-679",> 8 µM
same,EC50,"Homo sapiens, COLO-741",2.13 µM
same,IC50,"Homo sapiens, COLO-741",> 8 µM
same,EC50,"Homo sapiens, COR-L23",> 8 µM
same,IC50,"Homo sapiens, COR-L23",> 8 µM
same,EC50,"Homo sapiens, COR-L105",> 8 µM
same,IC50,"Homo sapiens, COR-L105",> 8 µM
same,EC50,"Homo sapiens, Calu-1",> 8 µM
same,IC50,"Homo sapiens, Calu-1",> 8 µM
same,EC50,"Homo sapiens, Calu-3",> 8 µM
same,IC50,"Homo sapiens, Calu-3",> 8 µM
same,EC50,"Homo sapiens, Calu-6",1.48 µM
same,IC50,"Homo sapiens, Calu-6",> 8 µM
same,EC50,"Homo sapiens, Capan-2",> 8 µM
same,IC50,"Homo sapiens, Capan-2",> 8 µM
same,EC50,"Homo sapiens, DBTRG-05MG",0.347 µM
same,IC50,"Homo sapiens, DBTRG-05MG",> 8 µM
same,EC50,"Homo sapiens, DMS-114",0.112 µM
same,IC50,"Homo sapiens, DMS-114",> 8 µM
same,EC50,"Homo sapiens, DOHH-2",0.122 µM
same,IC50,"Homo sapiens, DOHH-2",> 8 µM
same,EC50,"Homo sapiens, DOV13",> 8 µM
same,IC50,"Homo sapiens, DOV13",> 8 µM
same,EC50,"Homo sapiens, DU-145",> 8 µM
same,IC50,"Homo sapiens, DU-145",> 8 µM
same,EC50,"Homo sapiens, DV-90",0.00743 µM
same,IC50,"Homo sapiens, DV-90",> 8 µM
same,EC50,"Homo sapiens, Daoy",> 8 µM
same,IC50,"Homo sapiens, Daoy",> 8 µM
same,EC50,"Homo sapiens, Detroit 562",> 8 µM
same,IC50,"Homo sapiens, Detroit 562",> 8 µM
same,EC50,"Homo sapiens, EBC-1",0.44 µM
same,IC50,"Homo sapiens, EBC-1",> 8 µM
same,EC50,"Homo sapiens, EFE-184",> 8 µM
same,IC50,"Homo sapiens, EFE-184",> 8 µM
same,EC50,"Homo sapiens, EFM-19",0.0482 µM
same,IC50,"Homo sapiens, EFM-19",> 8 µM
same,EC50,"Homo sapiens, EFO-21",> 8 µM
same,IC50,"Homo sapiens, EFO-21",> 8 µM
same,EC50,"Homo sapiens, EFO-27",> 8 µM
same,IC50,"Homo sapiens, EFO-27",> 8 µM
same,EC50,"Homo sapiens, ESS-1",0.867 µM
same,IC50,"Homo sapiens, ESS-1",> 8 µM
same,EC50,"Homo sapiens, FaDu",> 8 µM
same,IC50,"Homo sapiens, FaDu",> 8 µM
same,EC50,"Homo sapiens, G-361",> 8 µM
same,IC50,"Homo sapiens, G-361",> 8 µM
same,EC50,"Homo sapiens, G-401",0.00888 µM
same,IC50,"Homo sapiens, G-401",> 8 µM
same,EC50,"Homo sapiens, G-402",0.467 µM
same,IC50,"Homo sapiens, G-402",2.05 µM
same,EC50,"Homo sapiens, GAMG",> 8 µM
same,IC50,"Homo sapiens, GAMG",> 8 µM
same,EC50,"Homo sapiens, GCIY",> 8 µM
same,IC50,"Homo sapiens, GCIY",> 8 µM
same,EC50,"Homo sapiens, GMS-10",> 8 µM
same,IC50,"Homo sapiens, GMS-10",> 8 µM
same,EC50,"Homo sapiens, Granta-519",> 8 µM
same,IC50,"Homo sapiens, Granta-519",> 8 µM
same,EC50,"Homo sapiens, HCC44",1.59 µM
same,IC50,"Homo sapiens, HCC44",> 8 µM
same,EC50,"Homo sapiens, HCC70",> 8 µM
same,IC50,"Homo sapiens, HCC70",> 8 µM
same,EC50,"Homo sapiens, HCC78",> 8 µM
same,IC50,"Homo sapiens, HCC78",> 8 µM
same,EC50,"Homo sapiens, HCC827",> 8 µM
same,IC50,"Homo sapiens, HCC827",> 8 µM
same,EC50,"Homo sapiens, HCC1187",> 8 µM
same,IC50,"Homo sapiens, HCC1187",> 8 µM
same,EC50,"Homo sapiens, HCC1395",> 8 µM
same,IC50,"Homo sapiens, HCC1395",> 8 µM
same,EC50,"Homo sapiens, HCC1569",> 8 µM
same,IC50,"Homo sapiens, HCC1569",> 8 µM
same,EC50,"Homo sapiens, HCC1806",> 8 µM
same,IC50,"Homo sapiens, HCC1806",> 8 µM
same,EC50,"Homo sapiens, HCC1954",> 8 µM
same,IC50,"Homo sapiens, HCC1954",> 8 µM
same,EC50,"Homo sapiens, HCC2935",> 8 µM
same,IC50,"Homo sapiens, HCC2935",> 8 µM
same,EC50,"Homo sapiens, HCC4006",> 8 µM
same,IC50,"Homo sapiens, HCC4006",> 8 µM
same,EC50,"Homo sapiens, HCT-15",4.53 µM
same,IC50,"Homo sapiens, HCT-15",> 8 µM
same,EC50,"Homo sapiens, HCT-116",> 8 µM
same,IC50,"Homo sapiens, HCT-116",> 8 µM
same,EC50,"Homo sapiens, HDQ-P1",0.506 µM
same,IC50,"Homo sapiens, HDQ-P1",> 8 µM
same,EC50,"Homo sapiens, HEC-1-A",> 8 µM
same,IC50,"Homo sapiens, HEC-1-A",> 8 µM
same,EC50,"Homo sapiens, HEC-1B",0.0275 µM
same,IC50,"Homo sapiens, HEC-1B",> 8 µM
same,EC50,"Homo sapiens, HEL 92.1.7",> 8 µM
same,IC50,"Homo sapiens, HEL 92.1.7",> 8 µM
same,EC50,"Homo sapiens, HGC-27",0.188 µM
same,IC50,"Homo sapiens, HGC-27",0.534 µM
same,EC50,"Homo sapiens, HMCB",> 8 µM
same,IC50,"Homo sapiens, HMCB",> 8 µM
same,EC50,"Homo sapiens, HPAC",2.67 µM
same,IC50,"Homo sapiens, HPAC",2.67 µM
